The first assay relates to 3T3-L1. In words: Glucose consumption in differentiated mouse 3T3L1 cells in high-glucose medium after 24 hrs by glucose-oxidase method. The format is functional, cell-based.
Conditions: not given
For `CCCCCCCC/C=C\CCCCCCCC(=O)Oc1ccc2c(c1)O/C(=C\c1ccc(OC)cc1)C2=O`, the Activity result is “Dose-dependent effect”.
Still for that read-out and setting: to `CCCCCCCC/C=C\CCCCCCCC(=O)Oc1ccc2c(=O)c(Cc3ccc(OC)cc3)coc2c1` belongs “Dose-dependent effect”; to `C=CCCCCCCCCC(=O)Oc1ccc2c(c1)C(=O)/C(=C/c1cccc(Cl)c1)O2`, “Dose-dependent effect”; to `C=CCCCCCCCCC(=O)Oc1ccc2c(c1)C(=O)/C(=C/c1ccc(F)cc1)O2`, “Dose-dependent effect”.
For the molecule `CCCCC/C=C\C=C\CCCCCCCCC(=O)Oc1ccc2c(c1)C(=O)/C(=C/c1cccc([N+](=O)[O-])c1)O2`, the Activity result is “Dose-dependent effect”.

Another assay has as its system 3T3-L1. The assay is described as follows: Glucose consumption in differentiated mouse 3T3L1 cells in high-glucose medium at 100 ug/ml after 24 hrs by glucose-oxidase method (Rvb =3.12 +/- 0.32 mmol/L). Type of assay: functional.
Conditions: not given
For the molecule `CCCCCCCC/C=C\CCCCCCCC(=O)Oc1ccc2c(c1)O/C(=C\c1ccc(OC)cc1)C2=O`, the Activity was 6.05 mmol/L.
Still for that read-out and setting: to `CCCCCCCC/C=C\CCCCCCCC(=O)Oc1ccc2c(=O)c(Cc3ccc(OC)cc3)coc2c1` belongs 4.23 mmol/L; to `C=CCCCCCCCCC(=O)Oc1ccc2c(c1)C(=O)/C(=C/c1cccc(Cl)c1)O2`, 4.49 mmol/L; to `C=CCCCCCCCCC(=O)Oc1ccc2c(c1)C(=O)/C(=C/c1ccc(F)cc1)O2`, 5.85 mmol/L.
`CCCCC/C=C\C=C\CCCCCCCCC(=O)Oc1ccc2c(c1)C(=O)/C(=C/c1cccc([N+](=O)[O-])c1)O2`: the Activity stood at 4.95 mmol/L.

Another assay relates to 3T3-L1. The assay is described as follows: Glucose consumption in differentiated mouse 3T3L1 cells in low-glucose medium after 24 hrs by glucose-oxidase method. The format is functional, cell-based.
Conditions: not given
As to `CCCCCCCC/C=C\CCCCCCCC(=O)Oc1ccc2c(c1)O/C(=C\c1ccc(OC)cc1)C2=O`, the Activity result is “Dose-dependent effect”.
Still for that read-out and setting: to `CCCCCCCC/C=C\CCCCCCCC(=O)Oc1ccc2c(=O)c(Cc3ccc(OC)cc3)coc2c1` belongs “Dose-dependent effect”; to `C=CCCCCCCCCC(=O)Oc1ccc2c(c1)C(=O)/C(=C/c1cccc(Cl)c1)O2`, “Dose-dependent effect”.
For the molecule `C=CCCCCCCCCC(=O)Oc1ccc2c(c1)C(=O)/C(=C/c1ccc(F)cc1)O2`, the Activity entry is “Dose-dependent effect”.
In the case of `CCCCC/C=C\C=C\CCCCCCCCC(=O)Oc1ccc2c(c1)C(=O)/C(=C/c1cccc([N+](=O)[O-])c1)O2`, the Activity result was “Dose-dependent effect”.

The next assay deals with 3T3-L1. The assay is described as follows: Glucose consumption in differentiated mouse 3T3L1 cells in low-glucose medium at 50 ug/ml after 24 hrs by glucose-oxidase method (Rvb =2.41 +/- 0.22 mmol/L). Type of assay: functional.
Conditions: not given
In the case of `CCCCCCCC/C=C\CCCCCCCC(=O)Oc1ccc2c(c1)O/C(=C\c1ccc(OC)cc1)C2=O`, the Activity turned out to be 4.94 mmol/L.
As for `CCCCCCCC/C=C\CCCCCCCC(=O)Oc1ccc2c(=O)c(Cc3ccc(OC)cc3)coc2c1`, the Activity was found to be 2.71 mmol/L.
On to `C=CCCCCCCCCC(=O)Oc1ccc2c(c1)C(=O)/C(=C/c1cccc(Cl)c1)O2`, for which the Activity was determined as 2.88 mmol/L.
As for `C=CCCCCCCCCC(=O)Oc1ccc2c(c1)C(=O)/C(=C/c1ccc(F)cc1)O2`, the Activity was found to be 4.41 mmol/L.
As for `CCCCC/C=C\C=C\CCCCCCCCC(=O)Oc1ccc2c(c1)C(=O)/C(=C/c1cccc([N+](=O)[O-])c1)O2`, the Activity was 3.64 mmol/L.

For another assay, the system named is 3T3-L1. In words: Increase in glucose consumption in differentiated mouse 3T3L1 cells in low-glucose medium at 100 ug/ml after 24 hrs by glucose-oxidase method relative to control. The format is functional.
Conditions: not given
Consider `CCCCCCCC/C=C\CCCCCCCC(=O)Oc1ccc2c(c1)O/C(=C\c1ccc(OC)cc1)C2=O`, for which the “fold change (FC)” value is 2.39.

A further assay deals with 3T3-L1. The assay is described as follows: Glucose consumption in differentiated mouse 3T3L1 cells in low-glucose medium at 100 ug/ml after 24 hrs by glucose-oxidase method (Rvb =2.35 +/- 0.19 mmol/L). Type of assay: functional.
Conditions: not given
As to `CCCCCCCC/C=C\CCCCCCCC(=O)Oc1ccc2c(c1)O/C(=C\c1ccc(OC)cc1)C2=O`, the Activity is 5.61 mmol/L.
For `CCCCCCCC/C=C\CCCCCCCC(=O)Oc1ccc2c(=O)c(Cc3ccc(OC)cc3)coc2c1`, the Activity is 3.38 mmol/L.
Turning to `C=CCCCCCCCCC(=O)Oc1ccc2c(c1)C(=O)/C(=C/c1cccc(Cl)c1)O2`, the Activity is 3.56 mmol/L.
Turning to `C=CCCCCCCCCC(=O)Oc1ccc2c(c1)C(=O)/C(=C/c1ccc(F)cc1)O2`, the Activity came to 5.45 mmol/L.
In the case of `CCCCC/C=C\C=C\CCCCCCCCC(=O)Oc1ccc2c(c1)C(=O)/C(=C/c1cccc([N+](=O)[O-])c1)O2`, the Activity is 4.29 mmol/L.

In another assay the test system is 3T3-L1. The assay is described as follows: Increase in glucose consumption in differentiated mouse 3T3L1 cells in high-glucose medium at 100 ug/ml after 24 hrs by glucose-oxidase method relative to control.
Conditions: not given
The format is functional.
Consider `CCCCCCCC/C=C\CCCCCCCC(=O)Oc1ccc2c(c1)O/C(=C\c1ccc(OC)cc1)C2=O`, for which the “fold change (FC)” value worked out at 2.39.

The next assay deals with 3T3-L1. The assay is described as follows: Increase in glucose consumption in differentiated mouse 3T3L1 cells in low-glucose medium at 50 ug/ml after 24 hrs by glucose-oxidase method relative to control. Type of assay: functional.
Conditions: not given
For the molecule `CCCCCCCC/C=C\CCCCCCCC(=O)Oc1ccc2c(c1)O/C(=C\c1ccc(OC)cc1)C2=O`, the “fold change (FC)” value is listed as 2.39.

Another assay has as its system 3T3-L1. In words: Glucose consumption in differentiated mouse 3T3L1 cells in high-glucose medium at 50 ug/ml after 24 hrs by glucose-oxidase method (Rvb =3.06 +/- 0.29 mmol/L). The format is functional.
Conditions: not given
For the molecule `CCCCCCCC/C=C\CCCCCCCC(=O)Oc1ccc2c(c1)O/C(=C\c1ccc(OC)cc1)C2=O`, the Activity came out at 5.48 mmol/L.
Take `CCCCCCCC/C=C\CCCCCCCC(=O)Oc1ccc2c(=O)c(Cc3ccc(OC)cc3)coc2c1`: the Activity came out at 3.49 mmol/L.
Consider `C=CCCCCCCCCC(=O)Oc1ccc2c(c1)C(=O)/C(=C/c1cccc(Cl)c1)O2`, for which the Activity was found to be 3.86 mmol/L.
Take `C=CCCCCCCCCC(=O)Oc1ccc2c(c1)C(=O)/C(=C/c1ccc(F)cc1)O2`: the Activity stood at 5.16 mmol/L.
For `CCCCC/C=C\C=C\CCCCCCCCC(=O)Oc1ccc2c(c1)C(=O)/C(=C/c1cccc([N+](=O)[O-])c1)O2`, the Activity is reported as 4.21 mmol/L.

The subject of another assay is 3T3-L1. The assay is described as follows: Inhibition of adipogenesis in mouse 3T3L1 cells at 100 umol/L after 8 days by Oil red O-staining. The format is functional. To be noted: 3T3-L1, 192 h.
For `CCCCCCCC/C=C\CCCCCCCC(=O)Oc1ccc2c(c1)O/C(=C\c1ccc(OC)cc1)C2=O`, testing at 100 µM gave an inhibition of 14.3%.
Still for that read-out and setting: to `CCCCCCCC/C=C\CCCCCCCC(=O)Oc1ccc2c(=O)c(Cc3ccc(OC)cc3)coc2c1` belongs 47.5%.
In turn, `C=CCCCCCCCCC(=O)Oc1ccc2c(c1)C(=O)/C(=C/c1cccc(Cl)c1)O2` gave an inhibition at 100 µM of 28.7%.
Consider `C=CCCCCCCCCC(=O)Oc1ccc2c(c1)C(=O)/C(=C/c1ccc(F)cc1)O2`, for which the inhibition at 100 µM came out at 25.4%.
Molecule `CCCCC/C=C\C=C\CCCCCCCCC(=O)Oc1ccc2c(c1)C(=O)/C(=C/c1cccc([N+](=O)[O-])c1)O2` displayed an inhibition at 100 µM of 15.1%.

The subject of another assay is 3T3-L1. The assay is described as follows: Antiproliferative activity against mouse 3T3L1 cells after 48 hrs by MTT assay. Type of assay: functional. Also noted: concentration or dose not given beside the values.
Conditions: not given
Turning to `CCCCCCCC/C=C\CCCCCCCC(=O)Oc1ccc2c(c1)O/C(=C\c1ccc(OC)cc1)C2=O`, the Activity was found to be 22.18%.
On the same count and under the same terms, to `CCCCCCCC/C=C\CCCCCCCC(=O)Oc1ccc2c(=O)c(Cc3ccc(OC)cc3)coc2c1` belongs 1.88%.
As to `C=CCCCCCCCCC(=O)Oc1ccc2c(c1)C(=O)/C(=C/c1cccc(Cl)c1)O2`, the Activity worked out at 57.4%.
Same read-out and setting: under `C=CCCCCCCCCC(=O)Oc1ccc2c(c1)C(=O)/C(=C/c1ccc(F)cc1)O2` stands 16.67%; under `CCCCC/C=C\C=C\CCCCCCCCC(=O)Oc1ccc2c(c1)C(=O)/C(=C/c1cccc([N+](=O)[O-])c1)O2`, -12.06%.

Values taken from ChEMBL document CHEMBL1782017, “Synthesis and biological evaluation of new flavonoid fatty acid esters with anti-adipogenic and enhancing glucose consumption activities” (2011).
